Data as given in patent US10799477B2, “Pharmaceutical composition for preventing or treating LDL cholesterol-related diseases, containing ribosome-binding preparation” (PUSAN NATIONAL UNIVERSITY INDUSTRY UNIVERSITY, priority 2016, dated 2020).

Columns and labels:
HCT-8 cells = test: Lipid droplets in HCT-8 cells, Oil Red O staining; assay type: cell-based, human; settings: 1000 mg/ml DON or 2 μM ANS, 24 h, FIG. 2
Protocol: To confirm the effect of ribosome inactivation on fat accumulation, enterocyte and hepatocyte exposed to ribosome inactivation stress using the ribosome-binding agent were stained with Oil Red O.
Specifically, HCT-8 cells and HepG2 cells were obtained from the American Type Culture Collection (ATCC Rockville, Md., USA). HCT-8 and HepG2 cells were treated with vehicle, […], or 2 μM anisomycin (ANS) for 24 h. […] The staining results of HCT-8 cells are illustrated in FIG. 2 and the staining results of HepG2 cells are illustrated in FIG. 3.

LDLR [1] = test: Protein level of LDLR in HCT-8 cells, Western blot; assay type: cell-based, human; settings: whole cell lysates, FIG. 9
Protocol: Further, HCT-8 cells were treated with vehicle or 1000 ng/ml DON for the indicated time. Thereafter, protein levels of LDLR were measured using whole cell lysates via Western blots. Specifically, the cells were washed with phosphate buffer. Subsequently, the cells were dissolved in lysis buffer (1% [w/v] SDS, 1.0 mM sodium orthovanadate, and 10 mM Tris [pH 7.4]). The lysate was sonicated for 5 seconds. The lysate was quantitated using the BCA protein assay kit (Pierce, Rockford, Ill., USA). Subsequently, immunoblotting was carried out to confirm the level of the protein in the cells. The results are illustrated in FIG. 9.

LDLR [2] = test: mRNA level of LDLR in HepG2 cells, real-time RT-PCR; assay type: cell-based, human; settings: HepG2 cells, 100, 500, 1000 ng/ml DON or 500, 1000, 2000 nM ANS, 1 hour, dose dependent, FIG. 11
LDLR [3] = test: mRNA level of LDLR in HCT-8 cells, real-time RT-PCR; assay type: cell-based, human; settings: HCT-8 cells, 100, 500, 1000 ng/ml DON or 500, 1000, 2000 nM ANS, 2 hours, dose dependent, FIG. 10
Protocol: Further, HCT-8 cells were treated with vehicle or 1000 ng/ml DON for the indicated time. In these treated cells, an mRNA level of LDLR was measured using real-time RT-PCR. Specifically, RNA was extracted using RiboEX (GeneAll Biotechnology, Seoul, Korea). Subsequently, the RNA (100 ng) from each sample was transcribed into cDNA using Prime Moloney murine leukemia virus reverse transcriptase (Genetbio, Nonsan, South Korea). The cDNA was then amplified using n-Taq DNA polymerase (Enzynomics, Seoul, South Korea). The amplified cDNA was treated at 95° C. for 2 minutes. The cDNA was then treated for 30 seconds at 95° C., for 30 seconds at 58° C. and for 30 seconds at 72° C. at each of different cycles. The thus treated cDNA was amplified and the amplification thereof was confirmed by electrophoresis. FAM was used as a fluorescent reporter staining drug. FAM was conjugated to a 5′ terminal of a product of the amplified cDNA. The resulting product was subjected to real-time RT-PCR using an iCycler thermal cycler (Bio-Rad). […]
Additionally, to determine the effect of chemical ribosome inactivators (DON, ANS) at different doses on the LDLR expression level, HCT-8 cells were treated with vehicle, 0, 100, 500, 1000 ng/ml DON or 0, 500, 1000, 2000 nM ANS for 2 hours. Then, mRNA levels of LDLR in the cells were measured using real-time RT-PCR. […] The mRNA level of the LDLR of the cells was measured. […]

LDLR [4] = test: LDLR immunohistochemistry in ileum and jejunum of mice fed DON; assay type: in vivo; settings: 25 mg/kg DON oral feeding, after 24 hours, IHC, FIG. 12
Protocol: Further, additional animal studies were performed to determine whether ribosome-inactivation stress increases a level of LDLR expression in the small intestine. Six-week-old male B6C3F1 mice (C57B1/6J×C3H/HeJ) were purchased from Samtako Bio Korea (Osan, South Korea). Animal experiments were performed according to the animal test method as approved in the Laboratory Animal Care Committee (PNU-2010-0291). Vehicle or 25 mg/kg DON was administered to the mice via oral feeding. After 24 hours, immunohistochemistry (IHC) was performed on ileum and jejunum to measure LDLR expression levels. The results are illustrated in FIG. 12.

SMILES	fat accumulation in HCT-8 cells (HCT-8 cells)	protein levels of LDLR (LDLR [1])	mRNA level of LDLR (LDLR [2])	mRNA level of LDLR (LDLR [3])	level of LDLR expression in the mouse small intestine (villus epithelium of ileum and jejunum) (LDLR [4])
COc1ccc(C[C@H]2NC[C@H](O)[C@H]2OC(C)=O)cc1 [ANS, anisomycin]	dose-dependently increased	increases	increases	increases	
CC1=C[C@H]2O[C@@H]3[C@H](O)C[C@](C)([C@@]2(CO)[C@H](O)C1=O)[C@]31CO1 [DON, deoxynivalenol]	dose-dependently increased	increases	increases	increases	increase
